Values after ≈ are worked out from the molar mass of the structure shown.
How the values were obtained:
Xenopus tadpoles = assay: Tadpole assay; conditions: Xenopus tadpole assay
S. aureus = assay: Antibiotic activity, MIC; type: cell-based; conditions: for MIC: Staphylococcus aureus
C. albicans = assay: Antibiotic activity, MIC; type: cell-based; conditions: for MIC: Candida albicans
E. Coli = assay: Antibiotic activity, MIC; type: cell-based; conditions: for MIC: Escherichia coli
chick embryo = assay: Chick embryo diss. assay (Table II); type: in vivo
Description: Using the chick embryo vitelline capillaries assay, compounds were tested for their ability to induce capillary regression. Each compound was applied in 0.1 ml of 15% Ficol 400 and PBS onto the embryo, and vascular regression was assessed after 60 minutes.

Structure (SMILES) | functional similarity in tadpole assay (Xenopus tadpoles) | MIC (S. aureus) [µg/mL] | MIC (C. albicans) [µg/mL] | MIC (E. Coli) [µg/mL] | other results
COC(=O)CC[C@@H](C)[C@H]1CC[C@H]2[C@@H]3CC[C@H]4C[C@H](NCCCNCCCCNCCCN)CC[C@]4(C)[C@H]3CC[C@]12C [Compound 458] | pharmacologic activity similar to that seen for FX 3 |  |  |  | 
CC(C)CCCC(C)[C@H]1CCC2C3C(CC[C@@]21C)[C@@]1(C)CC[C@H](N)C[C@@H]1C[C@H]3O (some centres unmarked) [drawing 55] |  | 2 (≈ 4.95 µM) | 2 (≈ 4.95 µM) | > 256 | 
CC(C)CCC[C@@H](C)[C@H]1CC[C@H]2[C@@H]3CC[C@H]4C[C@H](NCCCN5CCCCN=C5N)CC[C@]4(C)[C@H]3CC[C@]12C |  |  |  |  | MIC Values (S. aureus): 2 µg/mL (≈ 3.7 µM); MIC Values (C. albicans): 32 µg/mL (≈ 59.2 µM); MIC Values (E. Coli): > 256 µg/mL
C[C@H](CCC(=O)O)[C@H]1CC[C@H]2[C@@H]3[C@H](O)C[C@@H]4C[C@@H](NCCCNCCCCNCCCN)CC[C@]4(C)[C@H]3CC[C@]12C [drawing 62] |  | 8 (≈ 13.9 µM) | 32 (≈ 55.5 µM) | 256 (≈ 444 µM) | 
CC(C)CCCC(C)[C@H]1CCC2C3C(CC[C@@]21C)[C@@]1(C)CC[C@@H](N)C[C@@H]1C[C@H]3O (some centres unmarked) |  | 2 (≈ 4.95 µM) | 2 (≈ 4.95 µM) | > 256 | 
COC(=O)CCC(C)[C@H]1CCC2C3CC[C@H]4C[C@@H](NCCCNCCCCNCCCN)CC[C@]4(C)C3CC[C@@]21C (some centres unmarked) [drawing 75] |  | 1 to 2 (≈ 1.74 to 3.48 µM) | 2 (≈ 3.48 µM) | 32 (≈ 55.7 µM) | 
CC(CCCOS(=O)(=O)O)[C@H]1CCC2C3CC[C@H]4C[C@@H](NCCCNCCCCN)CC[C@]4(C)C3CC[C@@]21C (some centres unmarked) |  |  |  |  | Minimum Effective Concentration, chick embryo diss. assay (chick embryo): > 10 µg
COC(=O)CCC(C)[C@H]1CCC2C3C[C@@H](O)[C@H]4C[C@H](NCCCNCCCCNCCCN)CC[C@]4(C)C3CC[C@@]21C (some centres unmarked) |  | 2 to 4 (≈ 3.38 to 6.77 µM) | 4 (≈ 6.77 µM) | 32 (≈ 54.2 µM) | 
COC(=O)CC[C@@H](C)[C@H]1CC[C@H]2[C@@H]3C[C@@H](O)[C@H]4C[C@@H](NCCCNCCCCNCCCN)CC[C@]4(C)[C@H]3CC[C@]12C [Compound 466] | pharmacologic activity similar to that seen for FX 3 |  |  |  | 
CC(C)CCC[C@@H](C)[C@H]1CC[C@H]2[C@@H]3[C@H](O)C[C@H]4C[C@H](NCCCNCCCCN)CC[C@]4(C)[C@H]3CC[C@]12C [Compound 370] | pharmacologic activity similar to that seen for FX 3 |  |  |  | 
CC(CCC(=O)O)[C@H]1CCC2C3C(CC[C@@]21C)[C@@]1(C)CC[C@H](NCCCNCCCCN)C[C@@H]1C[C@H]3O (some centres unmarked) |  |  |  |  | Minimum Effective Concentration, chick embryo diss. assay (chick embryo): > 10 µg
C=C(C)C(=O)CCC(C)[C@H]1CCC2C3C(CC[C@@]21C)[C@@]1(C)CC[C@H](NCCCNCCCCN)C[C@@H]1C[C@H]3O (some centres unmarked) |  | 4 (≈ 7.35 µM) | 4 (≈ 7.35 µM) | 32 (≈ 58.8 µM) | 
COC(=O)CCC(C)[C@H]1CCC2C3C[C@@H](O)[C@H]4C[C@@H](NCCN)CC[C@]4(C)C3CC[C@@]21C (some centres unmarked) |  | 1 (≈ 2.23 µM) | 2 to 4 (≈ 4.46 to 8.91 µM) | 8 to 16 (≈ 17.8 to 35.7 µM) | 
CC(CCC(=O)O)[C@H]1CCC2C3C(CC[C@@]21C)[C@@]1(C)CC[C@@H](NCCN)C[C@H]1C[C@H]3O (some centres unmarked) |  | 32 (≈ 73.6 µM) | 64 (≈ 147 µM) | 64 (≈ 147 µM) | 
CC(C)CCC[C@@H](C)[C@H]1CC[C@H]2[C@@H]3[C@H](O)C[C@H]4C[C@H](N)CC[C@]4(C)[C@H]3CC[C@]12C [Compound 1363] | pharmacologic activity similar to Fraction 1 |  |  |  | potency in tadpole assay relative to Fraction 1 (Xenopus tadpoles): potencies comparable to that of Fraction 1
CC(COS(=O)(=O)O)C(=O)CC[C@@H](C)[C@H]1CC[C@H]2[C@@H]3[C@H](O)C[C@H]4C[C@@H](NCCCNCCCCN)CC[C@]4(C)[C@H]3CC[C@]12C (some centres unmarked) |  | 8 (≈ 12.5 µM) |  |  | 
COC(=O)CCC(C)[C@H]1CCC2C3C[C@@H](O)[C@H]4C[C@H](NCCN)CC[C@]4(C)C3CC[C@@]21C (some centres unmarked) [drawing 67] |  | 16 (≈ 35.7 µM) | 8 (≈ 17.8 µM) | 32 to 64 (≈ 71.3 to 143 µM) | 
COC(=O)CCC(C)[C@H]1CCC2C3CC[C@H]4C[C@H](NCCCNCCCCNCCCN)CC[C@]4(C)C3CC[C@@]21C (some centres unmarked) [drawing 74] |  | 4 (≈ 6.96 µM) | 2 (≈ 3.48 µM) | 32 (≈ 55.7 µM) | 
CC(CCC(=O)O)[C@H]1CCC2C3C[C@@H](O)[C@H]4C[C@@H](NCCN)CC[C@]4(C)C3CC[C@@]21C (some centres unmarked) [drawing 69] |  | > 256 | > 256 | > 256 | 
COC(=O)CC[C@@H](C)[C@H]1CC[C@H]2[C@@H]3[C@H](O)C[C@@H]4C[C@H](NCCN)CC[C@]4(C)[C@H]3CC[C@]12C [Compound 410] | functionally similar to compound 1437 |  |  |  | 
CC(CCC(=O)O)[C@H]1CCC2C3CC[C@@H]4C[C@H](NCCN)CC[C@]4(C)C3C[C@H](O)[C@@]21C (some centres unmarked) [drawing 66] |  | 16 to 32 (≈ 36.8 to 73.6 µM) | 32 (≈ 73.6 µM) | 64 (≈ 147 µM) | 
COC(=O)CC[C@@H](C)[C@H]1CC[C@H]2[C@@H]3C[C@@H](O)[C@H]4C[C@H](NCCN)CC[C@]4(C)[C@H]3CC[C@]12C [Compound 431] | functionally similar to compound 1437 |  |  |  | 
COC(=O)CC[C@@H](C)[C@H]1CC[C@H]2[C@@H]3CC[C@H]4C[C@@H](NCCCNCCCCNCCCN)CC[C@]4(C)[C@H]3CC[C@]12C [Compound 459] | pharmacologic activity similar to that seen for FX 3 |  |  |  | 

— patent publication US5792635A, “Method of inhibiting the sodium/proton exchanger NHE3 and method of inhibiting growth by administering squalamine” (priority 1995, dated 1998)
